Measured values: US11000033B2, “Ketone or oxime compound, and herbicide” (NISSAN CHEMICAL CORPORATION, priority 2014, dated 2021)

Assays:
Format in all cases: in vivo
[1] = system: Echinochloa oryzacola Vasing.; assay: Test Example 2: herbicidal activity, application during weed generation in submerged conditions (symbol A); settings: Table 23; application herbicide amount 320 g/ha; grade 0-5 by criteria of Test Example 1
In short: (§1)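 Seeds sown in flooded alluvial soil (4 cm water) were grown in a 25-30° C greenhouse. At the one- to two-leaf stage, diluted emulsion of compound was applied to the water surface at a predetermined rate. Effect was scored 3 weeks later.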

[2] = system: Cyperus difformis; assay: Test Example 3: herbicidal effect by foliage application, Wagner pot (symbol E); settings: application herbicide amount 320 g/ha
In short: (§2)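 Plants sown in submerged alluvial soil (water depth 0.1–0.5 cm) in a 25–30 °C greenhouse and grown 14 days. An emulsion of the compound diluted in water to a set herbicide amount was sprayed uniformly on foliage. Effect on each plant scored 3 weeks after application.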

[3] = system: Alopecurus myosuroides; assay: Test Example 5: herbicidal effect by foliage application, plastic box (symbol J); settings: 320 g/ha, 3 weeks after application
In short: (§3)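 Effect is rated 3 weeks after a foliar spray of water-diluted emulsion concentrate at a predetermined herbicide amount. Plants had grown 14 days in a 25° C. to 30° C. greenhouse from seed in sterilized diluvial soil.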

[4] = system: Scirpus juncoides; assay: Test Example 1: herbicidal activity, application before weed generation in submerged conditions (symbol B); settings: application herbicide amount 320 g/ha
In short: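 Compound emulsion was diluted to a set herbicide amount and applied to the water surface on the sowing day, into submerged (4 cm) alluvial-soil pots sown with mixed weed seeds and transplanted 2.5-leaf rice. Pots were held in a 25–30 °C greenhouse, and weeds were scored 0–5 by herbicidal ratio after 3 weeks.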

[5] = system: Chenopodium album; assay: Test Example 4: herbicidal effect by soil treatment (symbol O); settings: for O: Chenopodium album, herbicidal effect grade: 320 g/ha
In short: (§4)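 Seeds were sown in sterilized diluvial soil, covered with about 1.5 cm of soil, and the soil surface was sprayed with a water-diluted emulsion of the compound at a predetermined rate. Plants grew in a greenhouse at 25° C. to 30° C.; effects were scored visually 3 weeks after application.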

[6] = system: rapeseed; assay: Test Example 5: effect on crop by foliage application, plastic box (symbol g); settings: 320 g/ha, 3 weeks after application
In short: (§5)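 Crop and weed seeds sown in spots in sterilized diluvial soil in plastic boxes and covered with about 1.5 cm soil. Plants raised in a greenhouse at 25° C. to 30° C. for foliar application.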

[7] = system: Apera spica-venti; assay: Test Example 5: herbicidal effect by foliage application, plastic box (symbol L); settings: 320 g/ha, 3 weeks after application
In short: as §3

[8] = system: Abutilon theophrasti; assay: Test Example 4: herbicidal effect by soil treatment (symbol M); settings: for M: Abutilon theophrasti, herbicidal effect grade: 320 g/ha
In short: as §4

[9] = system: Echinochloa crus-galli var. crus-galli; assay: Test Example 3: herbicidal effect by foliage application, Wagner pot (symbol H); settings: application herbicide amount 320 g/ha
In short: as §2

[10] = system: Alopecurus myosuroides; assay: Test Example 4: herbicidal effect by soil treatment (symbol J); settings: for J: Alopecurus myosuroides, herbicidal effect grade: 320 g/ha
In short: as §4

[11] = system: Setaria viridis; assay: Test Example 4: herbicidal effect by soil treatment (symbol G); settings: for G: Setaria viridis, herbicidal effect grade: 320 g/ha
In short: as §4

[12] = system: Veronica persica; assay: Test Example 4: herbicidal effect by soil treatment (symbol R); settings: for R: Veronica persica, herbicidal effect grade: 320 g/ha
In short: as §4

[13] = system: corn; assay: Test Example 5: effect on crop by foliage application, plastic box (symbol c); settings: 320 g/ha, 3 weeks after application
In short: as §5

[14] = system: Avena fatua; assay: Test Example 4: herbicidal effect by soil treatment (symbol I); settings: for I: Avena fatua, herbicidal effect grade: 320 g/ha
In short: as §4

[15] = system: Apera spica-venti; assay: Test Example 4: herbicidal effect by soil treatment (symbol L); settings: for L: Apera spica-venti, herbicidal effect grade: 320 g/ha
In short: as §4

[16] = system: Scirpus juncoides; assay: Test Example 2: herbicidal activity, application during weed generation in submerged conditions (symbol B); settings: Table 23; application herbicide amount 320 g/ha; grade 0-5 by criteria of Test Example 1
In short: as §1

[17] = application herbicide amount 320 g/ha

Compound | Herbicidal effect grade, A: Echinochloa oryzacola Vasing. [1] | Herbicidal effect grade, B: Scirpus juncoides [16] | herbicidal effect on E, grade 0-5 [2] | J: Alopecurus myosuroides, herbicidal effect (criteria 0-5) [3] | Herbicidal effect grade, B: Scirpus juncoides [4] | O: Chenopodium album, herbicidal effect grade [5] | g: rapeseed, effect on crop (criteria 0-5) [6] | L: Apera spica-venti, herbicidal effect (criteria 0-5) [7] | M: Abutilon theophrasti, herbicidal effect grade [8] | herbicidal effect on H (Echinochloa crus-galli var. crus-galli), grade 0-5 [9] | J: Alopecurus myosuroides, herbicidal effect grade [10] | G: Setaria viridis, herbicidal effect grade [11] | R: Veronica persica, herbicidal effect grade [12] | c: corn, effect on crop (criteria 0-5) [13] | I: Avena fatua, herbicidal effect grade [14] | L: Apera spica-venti, herbicidal effect grade [15] | other results
CC#Cc1cc(C)c(C2=C(O)CC(CC(=NOC)C3CC3)C2=O)c(C)c1 (stereo not shown) [9-008] | 5 (Herbicidal ratio of 90% or more (almost completely withered)) | 4 (Herbicidal ratio of 70% or higher and lower than 90%) | – | – | – | – | – | – | – | – | – | – | – | – | – | – | E herbicidal effect grade ([2]; Table 24): 5 (Herbicidal ratio of 90% or more (almost completely withered)); J: Alopecurus myosuroides, herbicidal effect grade [3]: 5 (Herbicidal ratio of 90% or more (almost completely withered)); B (Scirpus juncoides) herbicidal effect grade [4]: 5 (Herbicidal ratio of 90% or more (almost completely withered)); Herbicidal effect grade, O: Chenopodium album [5, 17]: 0 (Herbicidal ratio of 5% or lower (almost no effect)); g: rapeseed, effect on crop grade [6]: 4 (Herbicidal ratio of 70% or higher and lower than 90%); L: Apera spica-venti, herbicidal effect grade [7]: 5 (Herbicidal ratio of 90% or more (almost completely withered)); Herbicidal effect grade, M: Abutilon theophrasti [8, 17]: 4 (Herbicidal ratio of 70% or higher and lower than 90%); H (Echinochloa crus-galli var. crus-galli) herbicidal effect grade ([9]; Table 24): 5 (Herbicidal ratio of 90% or more (almost completely withered)); Herbicidal effect grade, J: Alopecurus myosuroides [10, 17]: 5 (Herbicidal ratio of 90% or more (almost completely withered)); Herbicidal effect grade, G: Setaria viridis [11, 17]: 5 (Herbicidal ratio of 90% or more (almost completely withered)); Herbicidal effect grade, R: Veronica persica [12, 17]: 3 (Herbicidal ratio of 40% or higher and lower than 70%); c: corn, effect on crop grade [13]: 5 (Herbicidal ratio of 90% or more (almost completely withered)); Herbicidal effect grade, I: Avena fatua [14, 17]: 3 (Herbicidal ratio of 40% or higher and lower than 70%); Herbicidal effect grade, L: Apera spica-venti [15, 17]: 5 (Herbicidal ratio of 90% or more (almost completely withered))
COc1ccc(CON=C(C)CC2CC(O)=C(c3c(C)cc(C)cc3C)C2=O)cc1 (stereo not shown) [1-112] | 4 (Herbicidal ratio of 70% or higher and lower than 90%) | 4 (Herbicidal ratio of 70% or higher and lower than 90%) | 5 (Herbicidal ratio of 90% or more (almost completely withered)) | 5 (Herbicidal ratio of 90% or more (almost completely withered)) | 5 (Herbicidal ratio of 90% or more (almost completely withered)) | 0 (Herbicidal ratio of 5% or lower (almost no effect)) | 4 (Herbicidal ratio of 70% or higher and lower than 90%) | 5 (Herbicidal ratio of 90% or more (almost completely withered)) | 0 (Herbicidal ratio of 5% or lower (almost no effect)) | 5 (Herbicidal ratio of 90% or more (almost completely withered)) | 5 (Herbicidal ratio of 90% or more (almost completely withered)) | 5 (Herbicidal ratio of 90% or more (almost completely withered)) | 0 (Herbicidal ratio of 5% or lower (almost no effect)) | 4 (Herbicidal ratio of 70% or higher and lower than 90%) | 3 (Herbicidal ratio of 40% or higher and lower than 70%) | 5 (Herbicidal ratio of 90% or more (almost completely withered)) | –
CON=C(C)CC1CC(OC(=O)c2nsc(Cl)c2Cl)=C(c2c(C)cc(C)cc2C)C1=O (stereo not shown) [1-099] | 4 (Herbicidal ratio of 70% or higher and lower than 90%) | 4 (Herbicidal ratio of 70% or higher and lower than 90%) | 5 (Herbicidal ratio of 90% or more (almost completely withered)) | 5 (Herbicidal ratio of 90% or more (almost completely withered)) | 4 (Herbicidal ratio of 70% or higher and lower than 90%) | 0 (Herbicidal ratio of 5% or lower (almost no effect)) | 5 (Herbicidal ratio of 90% or more (almost completely withered)) | 5 (Herbicidal ratio of 90% or more (almost completely withered)) | 5 (Herbicidal ratio of 90% or more (almost completely withered)) | 5 (Herbicidal ratio of 90% or more (almost completely withered)) | 5 (Herbicidal ratio of 90% or more (almost completely withered)) | 5 (Herbicidal ratio of 90% or more (almost completely withered)) | 0 (Herbicidal ratio of 5% or lower (almost no effect)) | 5 (Herbicidal ratio of 90% or more (almost completely withered)) | 2 (Herbicidal ratio of 20% or higher and lower than 40%) | 5 (Herbicidal ratio of 90% or more (almost completely withered)) | –
CC(CC1CC(O)=C(c2c(C)cc(C)cc2C)C1=O)=NOC1CCCC1 (stereo not shown) [1-106] | 5 (Herbicidal ratio of 90% or more (almost completely withered)) | 0 (Herbicidal ratio of 5% or lower (almost no effect)) | 5 (Herbicidal ratio of 90% or more (almost completely withered)) | 5 (Herbicidal ratio of 90% or more (almost completely withered)) | 3 (Herbicidal ratio of 40% or higher and lower than 70%) | 0 (Herbicidal ratio of 5% or lower (almost no effect)) | 3 (Herbicidal ratio of 40% or higher and lower than 70%) | 5 (Herbicidal ratio of 90% or more (almost completely withered)) | 0 (Herbicidal ratio of 5% or lower (almost no effect)) | 5 (Herbicidal ratio of 90% or more (almost completely withered)) | 5 (Herbicidal ratio of 90% or more (almost completely withered)) | 5 (Herbicidal ratio of 90% or more (almost completely withered)) | 0 (Herbicidal ratio of 5% or lower (almost no effect)) | 5 (Herbicidal ratio of 90% or more (almost completely withered)) | 3 (Herbicidal ratio of 40% or higher and lower than 70%) | 5 (Herbicidal ratio of 90% or more (almost completely withered)) | –
